Data reported in the supplement of paper PMC9663587.

Tests used:
Experiment in all cases: increase in dead-cell fraction, 72 h; higher = more death;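 further: breast cancer cell lines in 384-well plates, stained with Hoechst plus LIVE/DEAD far red dye and imaged, cells above an LDR intensity threshold counted dead, Hoechst-negative corpses included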
Cabozantinib = compound: COc1cc2nccc(Oc3ccc(NC(=O)C4(C(=O)Nc5ccc(F)cc5)CC4)cc3)c2cc1OC [Cabozantinib]
[1] = compound: CC(=O)Nc1cccc(-n2c(=O)n(C3CC3)c(=O)c3c(Nc4ccc(I)cc4F)n(C)c(=O)c(C)c32)c1
R0-3306 = compound: C1=CC2=C(C=CC(=C2)C=C3C(=O)NC(=NCC4=CC=CS4)S3)N=C1 [R0-3306]
senexin b = compound: CN1CCN(C(=O)c2ccc3cc(CCNc4ncnc5ccc(C#N)cc45)ccc3c2)CC1 [senexin b]
Taselisib/GDC0032 = compound: Cc1nc(-c2cn3c(n2)-c2ccc(-c4cnn(C(C)(C)C(N)=O)c4)cc2OCC3)n(C(C)C)n1 [Taselisib/GDC0032]
AZD7762 = compound: NC(=O)Nc1cc(-c2cccc(F)c2)sc1C(=O)N[C@H]1CCCNC1 [AZD7762]
Buparlisib/NVP-BKM120 = compound: Nc1cc(C(F)(F)F)c(-c2cc(N3CCOCC3)nc(N3CCOCC3)n2)cn1 [Buparlisib/NVP-BKM120]
FMF-03-145-1 = compound: CCC(=O)Nc1ccc(C(=O)Nc2ccc(Nc3ncc4c(n3)N(C)c3ccc(C)cc3C(=O)N4C)cc2)cc1 [FMF-03-145-1]
Ceritinib/LDK378 = compound: Cc1cc(Nc2ncc(Cl)c(Nc3ccccc3S(=O)(=O)C(C)C)n2)c(OC(C)C)cc1C1CCNCC1 [Ceritinib/LDK378]
Olaparib/AZD2281 = compound: O=C(c1cc(Cc2n[nH]c(=O)c3ccccc23)ccc1F)N1CCN(C(=O)C2CC2)CC1 [Olaparib/AZD2281]
ABT-737 = compound: CN(C)CC[C@H](CSc1ccccc1)Nc1ccc(S(=O)(=O)NC(=O)c2ccc(N3CCN(Cc4ccccc4-c4ccc(Cl)cc4)CC3)cc2)cc1[N+](=O)[O-] [ABT-737]
Cediranib/AZD2171 = compound: COc1cc2c(Oc3ccc4[nH]c(C)cc4c3F)ncnc2cc1OCCCN1CCCC1 [Cediranib/AZD2171]

## AU565
Cabozantinib; 0.001 µM
  increase in dead-cell fraction: 0.0017
Cabozantinib; 0.003162 µM
  increase in dead-cell fraction: 0.0057
Cabozantinib; 0.01 µM
  increase in dead-cell fraction: 0.0018
Cabozantinib; 0.03162 µM
  increase in dead-cell fraction: -0.0008
Cabozantinib; 0.1 µM
  increase in dead-cell fraction: -0.003
Cabozantinib; 0.3162 µM
  increase in dead-cell fraction: 0.0025
Cabozantinib; 1 µM
  increase in dead-cell fraction: 0.0028
Cabozantinib; 3.162 µM
  increase in dead-cell fraction: -0.0021
Cabozantinib; 10 µM
  increase in dead-cell fraction: 0.0274
[1]; 0.0001 µM
  increase in dead-cell fraction: 0.0026
[1]; 0.0003162 µM
  increase in dead-cell fraction: 0.0025
[1]; 0.001 µM
  increase in dead-cell fraction: 0.0021
[1]; 0.003162 µM
  increase in dead-cell fraction: 0.0022
[1]; 0.01 µM
  increase in dead-cell fraction: 0.0009
[1]; 0.03162 µM
  increase in dead-cell fraction: -0.0017
[1]; 0.1 µM
  increase in dead-cell fraction: -0.0015
[1]; 0.3162 µM
  increase in dead-cell fraction: -0.0026
[1]; 1 µM
  increase in dead-cell fraction: 0.0032
R0-3306; 0.001 µM
  increase in dead-cell fraction: -0.0007
R0-3306; 0.003162 µM
  increase in dead-cell fraction: 0.0211
R0-3306; 0.01 µM
  increase in dead-cell fraction: 0.0272
R0-3306; 0.03162 µM
  increase in dead-cell fraction: 0.005
R0-3306; 0.1 µM
  increase in dead-cell fraction: 0.0121
R0-3306; 0.3162 µM
  increase in dead-cell fraction: 0.0139
R0-3306; 1 µM
  increase in dead-cell fraction: 0.0267
R0-3306; 3.162 µM
  increase in dead-cell fraction: 0.0545
R0-3306; 10 µM
  increase in dead-cell fraction: 0.329
Senexin b; 0.001 µM
  increase in dead-cell fraction: -0.0057
Senexin b; 0.003162 µM
  increase in dead-cell fraction: -0.0066
Senexin b; 0.01 µM
  increase in dead-cell fraction: -0.0019
Senexin b; 0.03162 µM
  increase in dead-cell fraction: -0.0056
Senexin b; 0.1 µM
  increase in dead-cell fraction: -0.0146
Senexin b; 0.3162 µM
  increase in dead-cell fraction: 0.0036
Senexin b; 1 µM
  increase in dead-cell fraction: 0.0078
Senexin b; 3.162 µM
  increase in dead-cell fraction: 0.0105
Senexin b; 10 µM
  increase in dead-cell fraction: -0.0068
Taselisib/GDC0032; 0.001 µM
  increase in dead-cell fraction: 0.0087
Taselisib/GDC0032; 0.003162 µM
  increase in dead-cell fraction: 0.0153
Taselisib/GDC0032; 0.01 µM
  increase in dead-cell fraction: 0.0378
Taselisib/GDC0032; 0.03162 µM
  increase in dead-cell fraction: 0.0611
Taselisib/GDC0032; 0.1 µM
  increase in dead-cell fraction: 0.0674
Taselisib/GDC0032; 0.3162 µM
  increase in dead-cell fraction: 0.0853
Taselisib/GDC0032; 1 µM
  increase in dead-cell fraction: 0.0898
Taselisib/GDC0032; 3.162 µM
  increase in dead-cell fraction: 0.0794
Taselisib/GDC0032; 10 µM
  increase in dead-cell fraction: 0.207
AZD7762; 0.001 µM
  increase in dead-cell fraction: 0.0024
AZD7762; 0.003162 µM
  increase in dead-cell fraction: -0.0005
AZD7762; 0.01 µM
  increase in dead-cell fraction: -0.0036
AZD7762; 0.03162 µM
  increase in dead-cell fraction: -0.0044
AZD7762; 0.1 µM
  increase in dead-cell fraction: -0.0002
AZD7762; 0.3162 µM
  increase in dead-cell fraction: 0.0011
AZD7762; 1 µM
  increase in dead-cell fraction: 0.0228
AZD7762; 3.162 µM
  increase in dead-cell fraction: 0.106
AZD7762; 10 µM
  increase in dead-cell fraction: 0.232
Buparlisib/NVP-BKM120; 0.001 µM
  increase in dead-cell fraction: -0.0006
Buparlisib/NVP-BKM120; 0.003162 µM
  increase in dead-cell fraction: 0.0058
Buparlisib/NVP-BKM120; 0.01 µM
  increase in dead-cell fraction: 0.0024
Buparlisib/NVP-BKM120; 0.03162 µM
  increase in dead-cell fraction: 0.0055
Buparlisib/NVP-BKM120; 0.1 µM
  increase in dead-cell fraction: 0.0187
Buparlisib/NVP-BKM120; 0.3162 µM
  increase in dead-cell fraction: 0.043
Buparlisib/NVP-BKM120; 1 µM
  increase in dead-cell fraction: 0.189
Buparlisib/NVP-BKM120; 3.162 µM
  increase in dead-cell fraction: 0.273
Buparlisib/NVP-BKM120; 10 µM
  increase in dead-cell fraction: 0.227
FMF-03-145-1; 0.0001 µM
  increase in dead-cell fraction: 0.0006
FMF-03-145-1; 0.0003162 µM
  increase in dead-cell fraction: 0.0131
FMF-03-145-1; 0.001 µM
  increase in dead-cell fraction: 0.0011
FMF-03-145-1; 0.003162 µM
  increase in dead-cell fraction: 0.0053
FMF-03-145-1; 0.01 µM
  increase in dead-cell fraction: 0.231
FMF-03-145-1; 0.03162 µM
  increase in dead-cell fraction: 0.127
FMF-03-145-1; 0.1 µM
  increase in dead-cell fraction: 0.102
Ceritinib/LDK378; 0.001 µM
  increase in dead-cell fraction: -0.0009
Ceritinib/LDK378; 0.003162 µM
  increase in dead-cell fraction: 0.0007
Ceritinib/LDK378; 0.01 µM
  increase in dead-cell fraction: 0.001
Ceritinib/LDK378; 0.03162 µM
  increase in dead-cell fraction: -0.0017
Ceritinib/LDK378; 0.1 µM
  increase in dead-cell fraction: -0.004
Ceritinib/LDK378; 0.3162 µM
  increase in dead-cell fraction: 0.0015
Ceritinib/LDK378; 1 µM
  increase in dead-cell fraction: 0.0037
Ceritinib/LDK378; 3.162 µM
  increase in dead-cell fraction: 0.0216
Olaparib/AZD2281; 0.001 µM
  increase in dead-cell fraction: -0.0007
Olaparib/AZD2281; 0.003162 µM
  increase in dead-cell fraction: -0.0016
Olaparib/AZD2281; 0.01 µM
  increase in dead-cell fraction: 0.0011
Olaparib/AZD2281; 0.03162 µM
  increase in dead-cell fraction: -0.0026
Olaparib/AZD2281; 0.1 µM
  increase in dead-cell fraction: 0.0033
Olaparib/AZD2281; 0.3162 µM
  increase in dead-cell fraction: -0.0012
Olaparib/AZD2281; 1 µM
  increase in dead-cell fraction: -0.006
Olaparib/AZD2281; 3.162 µM
  increase in dead-cell fraction: -0.0026
Olaparib/AZD2281; 10 µM
  increase in dead-cell fraction: 0.0043
ABT-737; 0.001 µM
  increase in dead-cell fraction: 0.0066
ABT-737; 0.003162 µM
  increase in dead-cell fraction: 0.0005
ABT-737; 0.01 µM
  increase in dead-cell fraction: 0.0025
ABT-737; 0.03162 µM
  increase in dead-cell fraction: -0.0006
ABT-737; 0.1 µM
  increase in dead-cell fraction: 0.0014
ABT-737; 0.3162 µM
  increase in dead-cell fraction: 0.0008
ABT-737; 1 µM
  increase in dead-cell fraction: 0.0066
ABT-737; 3.162 µM
  increase in dead-cell fraction: 0.0073
ABT-737; 10 µM
  increase in dead-cell fraction: 0.0507
Cediranib/AZD2171; 0.001 µM
  increase in dead-cell fraction: 0.0037
Cediranib/AZD2171; 0.003162 µM
  increase in dead-cell fraction: 0.0046
Cediranib/AZD2171; 0.01 µM
  increase in dead-cell fraction: 0.0016
Cediranib/AZD2171; 0.03162 µM
  increase in dead-cell fraction: 0.0034
Cediranib/AZD2171; 0.1 µM
  increase in dead-cell fraction: -0.0003
Cediranib/AZD2171; 0.3162 µM
  increase in dead-cell fraction: -0.0061
Cediranib/AZD2171; 1 µM
  increase in dead-cell fraction: -0.0046
Cediranib/AZD2171; 3.162 µM
  increase in dead-cell fraction: -0.0048
Cediranib/AZD2171; 10 µM
  increase in dead-cell fraction: 0.0027
